Source: ChEMBL document CHEMBL4177539, “Discovery of N-((3R,4R)-4-Fluoro-1-(6-((3-methoxy-1-methyl-1H-pyrazol-4-yl)amino)-9-methyl-9H-purin-2-yl)pyrrolidine-3-yl)acrylamide (PF-06747775) through Structure-Based Drug Design: A High Affinity Irreversible Inhibitor Targeting Oncogenic EGFR Mutants with Selectivity over Wild-Type EGFR” (J Med Chem, 2017)
Activity calls are given as the source filed them. No cut-off for these calls is given here.

How the values were obtained:
[1] = system: Canis familiaris; test: Toxicity in dog assessed as body weight loss administered as repeated dosing for 91 days; format: organism-based, Canis lupus familiaris; settings: in vivo, 2184 h
[2] = Fraction unbound in human plasma at 2 uM by LC-MS/MS based equilibrium dialysis method; format: ADME, cell-free
[3] = system: Rattus norvegicus; test: Toxicity in rat assessed as effect on central nervous system functions administered as single dose; format: organism-based; settings: in vivo
[4] = Apparent intrinsic clearance in human microsomes; format: ADME, Microsome; settings: read-out: CL(app)
[5] = physchem; settings: octanol/water
[6] = Apparent intrinsic hepatic clearance in dog hepatocytes; format: ADME, cell-based, Canis lupus familiaris, Hepatocyte; settings: read-out: CLH(app)
[7] = target: Proto-oncogene tyrosine-protein kinase ROS (Homo sapiens) (UniProt P08922); test: Inhibition of ROS (unknown origin) at 1 uM by cell based assay
[8] = Apparent intrinsic hepatic clearance in mouse hepatocytes; format: ADME, cell-based, Hepatocyte; settings: read-out: CLH(app)
[9] = Apparent intrinsic clearance in dog microsomes; format: ADME, Canis lupus familiaris, Microsome; settings: read-out: CL(app)
[10] = Apparent intrinsic clearance in rat microsomes; format: ADME, Microsome; settings: read-out: CL(app)
[11] = target: Tyrosine-protein kinase JAK3 (Homo sapiens) (UniProt P52333); test: Inhibition of JAK3 (unknown origin) at 1 uM by cell based assay
[12] = Clearance in Beagle dog plasma at 1 mg/kg, iv administered as single dose; format: ADME, organism-based, Canis lupus familiaris
[13] = target: Tyrosine-protein kinase TXK (Homo sapiens) (UniProt P42681); test: Inhibition of GST-tagged full-length recombinant human TXK cytoplasmic domain expressed in Baculovirus expression system at 1 uM by FRET-based Z'-LYTE assay
[14] = Fraction unbound in rat plasma at 2 uM by LC-MS/MS based equilibrium dialysis method; format: ADME, cell-free
[15] = target: Cytoplasmic tyrosine-protein kinase BMX (Homo sapiens) (UniProt P51813); test: Inhibition of His-tagged full-length recombinant human BMX cytoplasmic domain expressed in Baculovirus expression system at 1 uM by FRET-based Z'-LYTE assay
[16] = system: Rattus norvegicus; test: Toxicity in rat assessed as effect on heart rate administered as single dose; format: organism-based; settings: in vivo
[17] = Oral bioavailability in Wistar Han rat at 30 mg/kg administered as single dose; format: ADME, organism-based; settings: in vivo
[18] = system: Rattus norvegicus; test: Toxicity in rat assessed as body weight loss administered as repeated dosing for 91 days; format: organism-based; settings: in vivo, 2184 h
[19] = system: Salmonella typhimurium; test: Mutagenicity in Salmonella typhimurium by Ames test; format: toxicity, organism-based; settings: salmonella enterica subsp. enterica serovar typhimurium
[20] = system: Rattus norvegicus; test: Toxicity in rat assessed as effect on heart rate administered as repeated dosing; format: organism-based; settings: in vivo
[21] = Volume of distribution at steady state in Wistar Han rat at 1 mg/kg, iv administered as single dose; format: ADME, organism-based; settings: in vivo, read-out: Vdss
[22] = Drug metabolism in human hepatocytes assessed as demethylation; format: ADME, cell-based, Hepatocyte
[23] = Terminal half life in Nu/Nu mouse at 1 mg/kg, iv administered as single dose; format: ADME, organism-based; settings: in vivo, read-out: beta t1/2 (converted)
[24] = system: Canis familiaris; test: Toxicity in dog assessed as effect on blood pressure administered as single dose; format: organism-based, Canis lupus familiaris; settings: in vivo
[25] = system: Rattus norvegicus; test: Toxicity in rat assessed as effect on pulmonary system functions administered as repeated dosing; format: organism-based; settings: in vivo
[26] = system: Canis familiaris; test: Toxicity in dog assessed as effect on pulmonary system functions administered as repeated dosing; format: organism-based, Canis lupus familiaris; settings: in vivo
[27] = system: Rattus norvegicus; test: Toxicity in rat assessed as effect on blood pressure administered as repeated dosing; format: organism-based; settings: in vivo
[28] = target: Tyrosine-protein kinase BTK (Homo sapiens) (UniProt Q06187); test: Inhibition of His-tagged full-length recombinant human BTK cytoplasmic domain expressed in Baculovirus expression system at 1 uM by FRET-based Z'-LYTE assay
[29] = system: Canis familiaris; test: Toxicity in dog assessed as effect on central nervous system functions administered as repeated dosing; format: organism-based, Canis lupus familiaris; settings: in vivo
[30] = target: Proto-oncogene tyrosine-protein kinase ROS (Homo sapiens) (UniProt P08922); test: Inhibition of GST-tagged recombinant human ROS cytoplasmic domain (1883 to 2347 residues) expressed in Baculovirus expression system at 1 uM by FRET-based Z'-LYTE assay
[31] = system: Hepatocyte; settings: human, hepatocytes, 1 µM
[32] = target: CYP1A2 (Homo sapiens, UniProt P05177); test: Inhibition of human CYP1A2 at 10 uM; format: ADME
[33] = target: Activated CDC42 kinase 1 (Homo sapiens) (UniProt Q07912); test: Inhibition of GST-tagged recombinant human ACK catalytic domain (110 to 476 residues) expressed in Baculovirus expression system at 1 uM by FRET-based Z'-LYTE assay
[34] = Apparent intrinsic clearance in human hepatocytes; format: ADME, cell-based, Hepatocyte; settings: read-out: CLH(app)
[35] = Half life in Sprague-Dawley rat blood at 1 uM by LC-MS/MS analysis; format: ADME, tissue-based
[36] = target: CYP2C8 (Homo sapiens, UniProt P10632); test: Inhibition of human CYP2C8 at 10 uM; format: ADME
[37] = Oral bioavailability in Beagle dog at 3 mg/kg administered as single dose; format: ADME, organism-based, Canis lupus familiaris; settings: in vivo
[38] = system: Rattus norvegicus; test: Toxicity in rat assessed as effect on pulmonary system functions administered as single dose; format: organism-based; settings: in vivo

Sequence of Proto-oncogene tyrosine-protein kinase ROS (Homo sapiens) (P08922 whole entry, the tested form may be a part): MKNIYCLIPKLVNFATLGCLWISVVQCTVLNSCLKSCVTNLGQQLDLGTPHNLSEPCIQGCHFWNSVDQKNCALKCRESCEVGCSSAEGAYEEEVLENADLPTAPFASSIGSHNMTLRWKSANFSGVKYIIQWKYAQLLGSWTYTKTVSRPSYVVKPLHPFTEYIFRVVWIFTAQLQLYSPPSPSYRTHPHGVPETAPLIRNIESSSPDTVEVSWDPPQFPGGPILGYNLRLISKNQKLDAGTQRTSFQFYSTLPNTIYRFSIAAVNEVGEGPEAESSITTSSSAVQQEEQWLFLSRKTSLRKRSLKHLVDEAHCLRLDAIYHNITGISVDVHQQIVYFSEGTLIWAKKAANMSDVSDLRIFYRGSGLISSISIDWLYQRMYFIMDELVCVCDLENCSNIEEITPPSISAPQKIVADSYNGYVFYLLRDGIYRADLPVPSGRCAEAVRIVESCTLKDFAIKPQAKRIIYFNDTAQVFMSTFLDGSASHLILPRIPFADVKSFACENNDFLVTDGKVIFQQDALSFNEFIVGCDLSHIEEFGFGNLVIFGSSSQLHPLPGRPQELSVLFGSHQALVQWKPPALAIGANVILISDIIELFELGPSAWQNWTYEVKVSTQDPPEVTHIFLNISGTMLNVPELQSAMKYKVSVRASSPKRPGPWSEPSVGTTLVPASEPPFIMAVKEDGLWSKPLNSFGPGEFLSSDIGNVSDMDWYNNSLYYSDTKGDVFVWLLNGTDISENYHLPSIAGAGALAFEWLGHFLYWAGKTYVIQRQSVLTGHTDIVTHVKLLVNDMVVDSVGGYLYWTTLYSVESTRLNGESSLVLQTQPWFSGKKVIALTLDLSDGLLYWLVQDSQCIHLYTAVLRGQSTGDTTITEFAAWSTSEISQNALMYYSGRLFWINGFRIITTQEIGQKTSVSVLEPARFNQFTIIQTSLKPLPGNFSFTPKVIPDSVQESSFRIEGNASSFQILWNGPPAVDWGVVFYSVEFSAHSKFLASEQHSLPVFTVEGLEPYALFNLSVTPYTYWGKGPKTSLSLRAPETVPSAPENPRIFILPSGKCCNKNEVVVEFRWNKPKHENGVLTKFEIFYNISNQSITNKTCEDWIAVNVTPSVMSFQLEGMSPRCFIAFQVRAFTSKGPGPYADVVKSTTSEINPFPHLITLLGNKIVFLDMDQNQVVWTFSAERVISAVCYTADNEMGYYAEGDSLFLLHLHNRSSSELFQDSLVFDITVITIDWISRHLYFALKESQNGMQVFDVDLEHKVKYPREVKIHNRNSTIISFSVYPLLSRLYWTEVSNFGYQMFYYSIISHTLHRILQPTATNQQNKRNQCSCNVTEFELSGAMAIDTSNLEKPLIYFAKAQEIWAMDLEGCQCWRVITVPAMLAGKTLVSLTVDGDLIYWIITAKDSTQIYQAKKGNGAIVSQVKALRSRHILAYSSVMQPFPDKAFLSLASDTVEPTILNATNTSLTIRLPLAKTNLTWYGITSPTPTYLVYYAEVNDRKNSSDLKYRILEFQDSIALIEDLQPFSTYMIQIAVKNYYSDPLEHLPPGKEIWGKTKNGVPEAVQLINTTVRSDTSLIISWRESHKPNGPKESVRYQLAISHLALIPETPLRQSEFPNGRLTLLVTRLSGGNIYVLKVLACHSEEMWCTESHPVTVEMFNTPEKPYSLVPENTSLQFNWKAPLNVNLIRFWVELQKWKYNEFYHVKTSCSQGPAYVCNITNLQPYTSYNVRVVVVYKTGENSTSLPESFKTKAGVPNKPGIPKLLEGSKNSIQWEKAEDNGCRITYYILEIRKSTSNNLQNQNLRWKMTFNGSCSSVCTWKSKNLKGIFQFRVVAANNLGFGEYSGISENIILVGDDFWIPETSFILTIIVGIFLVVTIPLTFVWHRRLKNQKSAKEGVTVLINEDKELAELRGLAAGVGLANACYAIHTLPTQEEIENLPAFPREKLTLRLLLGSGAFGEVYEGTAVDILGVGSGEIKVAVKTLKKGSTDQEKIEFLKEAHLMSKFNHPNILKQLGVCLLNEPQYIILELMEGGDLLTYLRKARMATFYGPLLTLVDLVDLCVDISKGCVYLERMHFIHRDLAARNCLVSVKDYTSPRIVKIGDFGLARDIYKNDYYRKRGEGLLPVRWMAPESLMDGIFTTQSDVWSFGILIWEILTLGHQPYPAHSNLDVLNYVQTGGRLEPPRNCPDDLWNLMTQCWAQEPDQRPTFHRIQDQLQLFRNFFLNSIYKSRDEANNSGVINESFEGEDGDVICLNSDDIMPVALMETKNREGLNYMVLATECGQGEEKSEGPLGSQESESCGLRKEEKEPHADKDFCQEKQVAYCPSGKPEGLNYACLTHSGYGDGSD
Sequence of Tyrosine-protein kinase JAK3 (Homo sapiens) (P52333 whole entry): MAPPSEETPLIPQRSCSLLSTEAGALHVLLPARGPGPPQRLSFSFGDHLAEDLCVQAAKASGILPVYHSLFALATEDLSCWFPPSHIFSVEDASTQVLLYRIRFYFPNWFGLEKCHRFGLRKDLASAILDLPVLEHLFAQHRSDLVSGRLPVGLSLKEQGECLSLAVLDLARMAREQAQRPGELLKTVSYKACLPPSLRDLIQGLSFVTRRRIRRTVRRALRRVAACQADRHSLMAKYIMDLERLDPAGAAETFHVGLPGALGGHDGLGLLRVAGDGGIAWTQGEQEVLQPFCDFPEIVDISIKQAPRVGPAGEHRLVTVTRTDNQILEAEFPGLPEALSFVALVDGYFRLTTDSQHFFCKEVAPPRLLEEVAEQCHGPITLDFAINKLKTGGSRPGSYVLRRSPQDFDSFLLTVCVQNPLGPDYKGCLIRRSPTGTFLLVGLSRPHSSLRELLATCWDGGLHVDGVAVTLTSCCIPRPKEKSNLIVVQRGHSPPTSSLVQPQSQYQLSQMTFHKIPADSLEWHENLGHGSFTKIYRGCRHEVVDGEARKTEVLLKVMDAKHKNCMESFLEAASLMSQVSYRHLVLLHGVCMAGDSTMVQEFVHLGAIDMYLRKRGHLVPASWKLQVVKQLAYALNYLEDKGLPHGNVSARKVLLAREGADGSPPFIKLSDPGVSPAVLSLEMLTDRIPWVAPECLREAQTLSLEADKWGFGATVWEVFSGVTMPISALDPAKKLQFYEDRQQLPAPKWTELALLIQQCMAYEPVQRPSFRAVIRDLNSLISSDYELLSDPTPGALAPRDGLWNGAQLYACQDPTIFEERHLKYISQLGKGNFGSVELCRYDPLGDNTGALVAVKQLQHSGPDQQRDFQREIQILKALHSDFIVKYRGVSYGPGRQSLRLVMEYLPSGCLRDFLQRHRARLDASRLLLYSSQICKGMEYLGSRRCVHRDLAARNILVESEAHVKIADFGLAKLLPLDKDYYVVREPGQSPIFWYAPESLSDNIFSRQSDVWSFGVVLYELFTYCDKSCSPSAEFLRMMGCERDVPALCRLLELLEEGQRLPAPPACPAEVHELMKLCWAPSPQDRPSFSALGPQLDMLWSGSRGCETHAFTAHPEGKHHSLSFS
Sequence of Tyrosine-protein kinase TXK (Homo sapiens) (P42681 whole entry, the tested form may be a part): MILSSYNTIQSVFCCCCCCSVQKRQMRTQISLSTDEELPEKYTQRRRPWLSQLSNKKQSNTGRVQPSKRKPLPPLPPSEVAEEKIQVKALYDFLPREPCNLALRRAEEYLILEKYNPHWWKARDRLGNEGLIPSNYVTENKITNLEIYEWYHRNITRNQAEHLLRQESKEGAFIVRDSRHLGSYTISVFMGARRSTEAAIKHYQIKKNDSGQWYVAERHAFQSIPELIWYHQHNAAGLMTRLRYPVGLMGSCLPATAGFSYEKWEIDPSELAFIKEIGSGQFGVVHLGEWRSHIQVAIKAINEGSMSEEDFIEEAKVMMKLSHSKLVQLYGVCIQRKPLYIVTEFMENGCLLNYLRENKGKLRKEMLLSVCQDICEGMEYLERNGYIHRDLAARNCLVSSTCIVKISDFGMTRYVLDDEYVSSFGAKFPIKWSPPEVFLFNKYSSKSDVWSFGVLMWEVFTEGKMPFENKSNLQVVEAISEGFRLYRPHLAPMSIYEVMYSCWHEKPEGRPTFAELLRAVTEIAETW
Sequence of Activated CDC42 kinase 1 (Homo sapiens) (Q07912 whole entry, looked up, the tested form may be a part): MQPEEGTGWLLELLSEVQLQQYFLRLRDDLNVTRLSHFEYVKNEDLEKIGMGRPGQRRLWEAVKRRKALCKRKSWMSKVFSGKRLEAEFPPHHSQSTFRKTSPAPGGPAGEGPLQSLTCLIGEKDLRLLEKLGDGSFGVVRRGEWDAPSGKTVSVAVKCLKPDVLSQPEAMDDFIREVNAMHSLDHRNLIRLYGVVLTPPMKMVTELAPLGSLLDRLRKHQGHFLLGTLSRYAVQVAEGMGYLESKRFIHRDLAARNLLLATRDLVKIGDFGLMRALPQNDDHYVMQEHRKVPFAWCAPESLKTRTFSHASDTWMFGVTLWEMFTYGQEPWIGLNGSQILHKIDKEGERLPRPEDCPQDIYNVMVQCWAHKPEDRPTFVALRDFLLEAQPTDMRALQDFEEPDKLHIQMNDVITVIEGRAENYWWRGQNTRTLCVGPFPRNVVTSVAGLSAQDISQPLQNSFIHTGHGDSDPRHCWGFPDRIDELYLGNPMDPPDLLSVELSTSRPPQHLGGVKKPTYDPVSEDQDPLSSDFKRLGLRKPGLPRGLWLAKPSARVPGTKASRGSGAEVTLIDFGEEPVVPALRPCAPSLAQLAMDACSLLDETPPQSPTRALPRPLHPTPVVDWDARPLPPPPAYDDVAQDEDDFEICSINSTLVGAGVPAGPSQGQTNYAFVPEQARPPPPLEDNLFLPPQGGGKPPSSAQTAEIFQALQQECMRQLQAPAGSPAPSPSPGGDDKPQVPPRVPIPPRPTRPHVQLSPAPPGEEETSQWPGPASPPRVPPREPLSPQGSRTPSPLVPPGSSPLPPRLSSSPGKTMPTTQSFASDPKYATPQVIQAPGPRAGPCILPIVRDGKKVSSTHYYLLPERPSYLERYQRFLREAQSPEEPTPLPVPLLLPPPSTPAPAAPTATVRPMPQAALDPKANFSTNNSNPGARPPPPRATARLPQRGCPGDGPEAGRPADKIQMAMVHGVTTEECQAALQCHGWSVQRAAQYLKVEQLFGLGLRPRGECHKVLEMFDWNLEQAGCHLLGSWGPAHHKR

## C=CC(=O)N[C@@H]1CN(c2nc(Nc3cn(C)nc3OC)c3ncn(C)c3n2)C[C@H]1F [MAVELERTINIB]
[1]
  Activity: Non-Toxic
[2]
  fraction unbound at 2 µM: 0.27
[3]
  Activity: Non-Toxic
[4]
  CLint scaled: < 6 mL/min/kg
[5]
  logD: 2
[6]
  CLint scaled: 17 mL/min/kg
[7]
  inhibition: Active
[8]
  CLint scaled: 196 mL/min/kg
[9]
  CLint scaled: 3 mL/min/kg
[10]
  CLint scaled: 141 mL/min/kg
[11]
  inhibition: Active
[12]
  clearance: 12 mL/min/kg
[13]
  inhibition: > 50%
[14]
  fraction unbound at 2 µM: 0.22
[15]
  inhibition: > 50%
[16]
  Activity: Non-Toxic
[17]
  bioavailability: 11%
[18]
  Activity: Non-Toxic
[19]
  Activity: Non-Toxic
[20]
  Activity: Non-Toxic
[21]
  Vd: 0.66 L/kg
[22]
  Drug metabolism: Metabolite_Detected
[23]
  half-life: 0.56 h
[24]
  Activity: Non-Toxic
[25]
  Activity: Non-Toxic
[26]
  Activity: Non-Toxic
[27]
  Activity: Non-Toxic
[28]
  inhibition: > 50%
[29]
  Activity: Non-Toxic
[30]
  inhibition: > 50%
[31]
  CLH: 3 µL/min/mg
[32]
  inhibition at 10 µM: < 30%
[33]
  inhibition: > 50%
[34]
  CLint scaled: 3 mL/min/kg
[35]
  half-life at 1 µM: 3.95 h
[36]
  inhibition at 10 µM: < 30%
[37]
  bioavailability: 66%
[38]
  Activity: Non-Toxic
